# Molecular target: T1, EGFR (Homo sapiens, UniProt P00533)
# T1 construct: endogenous in cells; host or cells: A431 cells (lysate, captured with SUMO1 anti-EGFR antibody)
# Assay: Biochemical EGFR Assay
# Set-up: concentration or dose not given beside the values
# Summary of the method: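 EGFR from A431 lysate was captured on anti-EGFR-coated wells and preincubated 30 min with compound (diluted 1:10 in TBS) at room temperature. After ATP/MnCl2 phosphorylation for 5 min, the reaction was stopped with EDTA. Phosphotyrosine was detected by ELISA (anti-phosphotyrosine, peroxidase conjugate, ABTS) at 410 nm.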
# T1 sequence (P00533 25-1210): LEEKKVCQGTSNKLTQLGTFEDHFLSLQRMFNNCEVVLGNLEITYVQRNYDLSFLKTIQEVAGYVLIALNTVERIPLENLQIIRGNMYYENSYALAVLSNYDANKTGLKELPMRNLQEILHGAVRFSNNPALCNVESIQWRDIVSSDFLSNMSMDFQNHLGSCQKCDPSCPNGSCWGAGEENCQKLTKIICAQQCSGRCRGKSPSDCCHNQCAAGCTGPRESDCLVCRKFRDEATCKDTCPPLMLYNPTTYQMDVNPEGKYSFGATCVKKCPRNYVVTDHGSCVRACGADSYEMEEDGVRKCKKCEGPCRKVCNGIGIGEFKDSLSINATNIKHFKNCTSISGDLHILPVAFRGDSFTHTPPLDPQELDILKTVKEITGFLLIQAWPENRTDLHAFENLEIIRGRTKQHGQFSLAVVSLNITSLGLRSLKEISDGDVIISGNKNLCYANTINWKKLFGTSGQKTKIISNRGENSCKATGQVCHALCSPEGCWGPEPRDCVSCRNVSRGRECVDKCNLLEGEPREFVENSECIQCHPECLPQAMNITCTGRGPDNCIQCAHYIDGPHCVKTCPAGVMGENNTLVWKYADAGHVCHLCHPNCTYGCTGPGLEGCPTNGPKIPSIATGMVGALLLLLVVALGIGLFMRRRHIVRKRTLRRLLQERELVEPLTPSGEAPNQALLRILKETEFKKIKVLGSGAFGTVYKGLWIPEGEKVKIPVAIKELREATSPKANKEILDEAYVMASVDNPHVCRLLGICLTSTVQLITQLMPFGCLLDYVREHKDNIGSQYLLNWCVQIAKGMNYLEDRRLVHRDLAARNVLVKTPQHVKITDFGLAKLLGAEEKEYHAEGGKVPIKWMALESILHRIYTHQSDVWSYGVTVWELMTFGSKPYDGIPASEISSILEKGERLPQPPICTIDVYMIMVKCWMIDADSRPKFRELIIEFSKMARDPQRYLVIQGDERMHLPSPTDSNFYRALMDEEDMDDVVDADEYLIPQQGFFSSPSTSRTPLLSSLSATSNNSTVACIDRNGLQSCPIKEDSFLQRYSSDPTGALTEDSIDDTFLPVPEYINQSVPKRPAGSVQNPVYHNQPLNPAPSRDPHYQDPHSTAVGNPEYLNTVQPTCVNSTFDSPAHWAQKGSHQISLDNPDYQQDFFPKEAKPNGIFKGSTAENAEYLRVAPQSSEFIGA
row,Compound,Biochem EGFR % Inhibition (P.167)
1,O=C1Nc2ccc(CCCl)cc2C1=Cc1cc(F)cc(F)c1 [10735/G04],22.8%
2,O=C1Nc2ccc(CCCl)cc2C1=Cc1cccc(C(F)(F)F)c1 [10735/G05],16.7%
3,O=C1Nc2ccc(CCCl)cc2C1=Cc1cc(C(F)(F)F)cc(C(F)(F)F)c1 [10735/G06],2.1%
